Measurements: the NIST ThermoML archive (doi:10.1021/je400722h)

Legend:
[1] = molar heat capacity at constant pressure; xn = mol fraction of the nth substance listed; details: 101 kPa, Liquid, Small sample (50 mg) DSC
[2] = xn = mol fraction of the nth substance listed; details: 101 kPa, Liquid; for speed of sound: Pulse-echo method; for mass density: Vibrating tube method

Cc1ccccc1Cl [2-chlorotoluene] + C1COCCO1
Details	mass density [kg/m3]	molar heat capacity at constant pressure [J/K/mol]	speed of sound [m/s]
[1], 298.15 K, x1 = 0.0903	–	155.43	–
[1], 298.15 K, x1 = 0.1278	–	156.54	–
[1], 298.15 K, x1 = 0.1654	–	157.65	–
[1], 298.15 K, x1 = 0.2006	–	158.69	–
[1], 298.15 K, x1 = 0.2343	–	159.68	–
[1], 298.15 K, x1 = 0.2765	–	160.9	–
[1], 298.15 K, x1 = 0.3004	–	161.59	–
[1], 298.15 K, x1 = 0.3421	–	162.78	–
[1], 298.15 K, x1 = 0.3876	–	164.06	–
[1], 298.15 K, x1 = 0.4002	–	164.41	–
[1], 298.15 K, x1 = 0.4327	–	165.31	–
[1], 298.15 K, x1 = 0.4726	–	166.39	–
[1], 298.15 K, x1 = 0.5117	–	167.43	–
[1], 298.15 K, x1 = 0.5401	–	168.17	–
[1], 298.15 K, x1 = 0.5915	–	169.49	–
[1], 298.15 K, x1 = 0.6305	–	170.45	–
[1], 298.15 K, x1 = 0.6721	–	171.46	–
[1], 298.15 K, x1 = 0.7198	–	172.57	–
[1], 298.15 K, x1 = 0.7401	–	173.03	–
[1], 298.15 K, x1 = 0.7623	–	173.53	–
[1], 298.15 K, x1 = 0.8004	–	174.36	–
[1], 298.15 K, x1 = 0.8432	–	175.26	–
[1], 298.15 K, x1 = 0.8856	–	176.11	–
[1], 298.15 K, x1 = 0.9165	–	176.7	–
[1], 303.15 K, x1 = 0.0903	–	156.69	–
[1], 303.15 K, x1 = 0.1278	–	157.84	–
[1], 303.15 K, x1 = 0.1654	–	158.98	–
[1], 303.15 K, x1 = 0.2006	–	160.04	–
[1], 303.15 K, x1 = 0.2343	–	161.05	–
[1], 303.15 K, x1 = 0.2765	–	162.3	–
[1], 303.15 K, x1 = 0.3004	–	163	–
[1], 303.15 K, x1 = 0.3421	–	164.21	–
[1], 303.15 K, x1 = 0.3876	–	165.52	–
[1], 303.15 K, x1 = 0.4002	–	165.87	–
[1], 303.15 K, x1 = 0.4327	–	166.79	–
[1], 303.15 K, x1 = 0.4726	–	167.9	–
[1], 303.15 K, x1 = 0.5117	–	168.97	–
[1], 303.15 K, x1 = 0.5401	–	169.73	–
[1], 303.15 K, x1 = 0.5915	–	171.09	–
[1], 303.15 K, x1 = 0.6305	–	172.09	–
[1], 303.15 K, x1 = 0.6721	–	173.13	–
[1], 303.15 K, x1 = 0.7198	–	174.28	–
[1], 303.15 K, x1 = 0.7401	–	174.76	–
[1], 303.15 K, x1 = 0.7623	–	175.27	–
[1], 303.15 K, x1 = 0.8004	–	176.13	–
[1], 303.15 K, x1 = 0.8432	–	177.05	–
[1], 303.15 K, x1 = 0.8856	–	177.92	–
[1], 303.15 K, x1 = 0.9165	–	178.52	–
[1], 308.15 K, x1 = 0.0903	–	158.03	–
[1], 308.15 K, x1 = 0.1278	–	159.2	–
[1], 308.15 K, x1 = 0.1654	–	160.36	–
[1], 308.15 K, x1 = 0.2006	–	161.44	–
[1], 308.15 K, x1 = 0.2343	–	162.46	–
[1], 308.15 K, x1 = 0.2765	–	163.73	–
[1], 308.15 K, x1 = 0.3004	–	164.44	–
[1], 308.15 K, x1 = 0.3421	–	165.66	–
[1], 308.15 K, x1 = 0.3876	–	166.99	–
[1], 308.15 K, x1 = 0.4002	–	167.35	–
[1], 308.15 K, x1 = 0.4327	–	168.28	–
[1], 308.15 K, x1 = 0.4726	–	169.41	–
[1], 308.15 K, x1 = 0.5117	–	170.5	–
[1], 308.15 K, x1 = 0.5401	–	171.28	–
[1], 308.15 K, x1 = 0.5915	–	172.67	–
[1], 308.15 K, x1 = 0.6305	–	173.7	–
[1], 308.15 K, x1 = 0.6721	–	174.77	–
[1], 308.15 K, x1 = 0.7198	–	175.95	–
[1], 308.15 K, x1 = 0.7401	–	176.44	–
[1], 308.15 K, x1 = 0.7623	–	176.97	–
[1], 308.15 K, x1 = 0.8004	–	177.84	–
[1], 308.15 K, x1 = 0.8432	–	178.78	–
[1], 308.15 K, x1 = 0.8856	–	179.66	–
[1], 308.15 K, x1 = 0.9165	–	180.26	–
[2], 298.15 K, x1 = 0.0984	1033.4	–	1338.2
[2], 298.15 K, x1 = 0.1643	1036.9	–	1333.2
[2], 298.15 K, x1 = 0.2124	1039.5	–	1329.9
[2], 298.15 K, x1 = 0.2837	1043.3	–	1325.3
[2], 298.15 K, x1 = 0.3427	1046.3	–	1321.8
[2], 298.15 K, x1 = 0.3918	1048.9	–	1319.1
[2], 298.15 K, x1 = 0.4375	1051.2	–	1316.8
[2], 298.15 K, x1 = 0.4864	1053.6	–	1314.5
[2], 298.15 K, x1 = 0.5237	1055.5	–	1312.8
[2], 298.15 K, x1 = 0.5765	1058.1	–	1310.7
[2], 298.15 K, x1 = 0.6237	1060.4	–	1308.8
[2], 298.15 K, x1 = 0.6801	1063	–	1306.9
[2], 298.15 K, x1 = 0.7135	1064.6	–	1305.8
[2], 298.15 K, x1 = 0.7737	1067.4	–	1304
[2], 298.15 K, x1 = 0.8125	1069.2	–	1302.9
[2], 298.15 K, x1 = 0.8635	1071.4	–	1301.7
[2], 298.15 K, x1 = 0.9012	1073.1	–	1300.8
[2], 298.15 K, x1 = 0.9415	1074.9	–	1299.9
[2], 303.15 K, x1 = 0.0984	1027.7	–	1316.6
[2], 303.15 K, x1 = 0.1643	1031.3	–	1312
[2], 303.15 K, x1 = 0.2124	1033.9	–	1308.9
[2], 303.15 K, x1 = 0.2837	1037.8	–	1304.6
[2], 303.15 K, x1 = 0.3427	1040.9	–	1301.5
[2], 303.15 K, x1 = 0.3918	1043.5	–	1299
[2], 303.15 K, x1 = 0.4375	1045.9	–	1296.9
[2], 303.15 K, x1 = 0.4864	1048.4	–	1294.8
[2], 303.15 K, x1 = 0.5237	1050.3	–	1293.2
[2], 303.15 K, x1 = 0.5765	1052.9	–	1291.2
[2], 303.15 K, x1 = 0.6237	1055.2	–	1289.6
[2], 303.15 K, x1 = 0.6801	1057.9	–	1287.7
[2], 303.15 K, x1 = 0.7135	1059.5	–	1286.7
[2], 303.15 K, x1 = 0.7737	1062.3	–	1285
[2], 303.15 K, x1 = 0.8125	1064.1	–	1284.1
[2], 303.15 K, x1 = 0.8635	1066.4	–	1283
[2], 303.15 K, x1 = 0.9012	1068.1	–	1282.2
[2], 303.15 K, x1 = 0.9415	1069.9	–	1281.5
[2], 308.15 K, x1 = 0.0984	1022	–	1295.1
[2], 308.15 K, x1 = 0.1643	1025.6	–	1290.8
[2], 308.15 K, x1 = 0.2124	1028.3	–	1287.9
[2], 308.15 K, x1 = 0.2837	1032.3	–	1284
[2], 308.15 K, x1 = 0.3427	1035.5	–	1281.2
[2], 308.15 K, x1 = 0.3918	1038.2	–	1279
[2], 308.15 K, x1 = 0.4375	1040.6	–	1277
[2], 308.15 K, x1 = 0.4864	1043.1	–	1275.1
[2], 308.15 K, x1 = 0.5237	1045.1	–	1273.8
[2], 308.15 K, x1 = 0.5765	1047.7	–	1271.9
[2], 308.15 K, x1 = 0.6237	1050.1	–	1270.4
[2], 308.15 K, x1 = 0.6801	1052.8	–	1268.7
[2], 308.15 K, x1 = 0.7135	1054.4	–	1267.8
[2], 308.15 K, x1 = 0.7737	1057.2	–	1266.3
[2], 308.15 K, x1 = 0.8125	1059	–	1265.4
[2], 308.15 K, x1 = 0.8635	1061.4	–	1264.4
[2], 308.15 K, x1 = 0.9012	1063.1	–	1263.8
[2], 308.15 K, x1 = 0.9415	1064.9	–	1263.3
